Laboratory results as given in PubChem BioAssay AID1918996 (Molecular Pharmacology Branch, DTP, NCI, 2023).

System: 349418-098-R-PDC complex spheroid growth
Assay: Anticancer human tumor 349418-098-R-PDC patient-derived lung adenocarcinoma cell line growth inhibition [AhR]
Settings: for IC50: curve of first compound; for viability, T/C: stronger effect = lower value
Summary of the method: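 Complex tumor spheroids co-cultured with HUVEC and human MSC stroma; AhR antagonists tested in combination with standard-of-care and investigational agents. Top concentration at or near clinical Cmax (else 10 microM), half-log dilutions; growth expressed as percent test/control.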

[1] = second compound 0.1 µM, first compound 0.0316 µM
[2] = second compound 0.1 µM, first compound 0.1 µM
[3] = second compound 0.1 µM, first compound 0.316 µM
[4] = second compound 0.1 µM, first compound 1 µM
[5] = second compound 0.1 µM, first compound 3.16 µM
[6] = second compound 0.1 µM, first compound 10 µM
[7] = second compound 0.316 µM, first compound 0.0316 µM
[8] = second compound 0.316 µM, first compound 0.1 µM
[9] = second compound 0.316 µM, first compound 0.316 µM
[10] = second compound 0.316 µM, first compound 1 µM
[11] = second compound 0.316 µM, first compound 3.16 µM
[12] = second compound 0.316 µM, first compound 10 µM
[13] = second compound 1 µM, first compound 0.0316 µM
[14] = second compound 1 µM, first compound 0.1 µM
[15] = second compound 1 µM, first compound 0.316 µM
[16] = second compound 1 µM, first compound 1 µM
[17] = second compound 1 µM, first compound 3.16 µM
[18] = second compound 1 µM, first compound 10 µM
[19] = second compound 3.16 µM, first compound 0.0316 µM
[20] = second compound 3.16 µM, first compound 0.1 µM
[21] = second compound 3.16 µM, first compound 0.316 µM
[22] = second compound 3.16 µM, first compound 1 µM
[23] = second compound 3.16 µM, first compound 3.16 µM
[24] = second compound 3.16 µM, first compound 10 µM
[25] = second compound 10 µM, first compound 0.0316 µM
[26] = second compound 10 µM, first compound 0.1 µM
[27] = second compound 10 µM, first compound 0.316 µM
[28] = second compound 10 µM, first compound 1 µM
[29] = second compound 10 µM, first compound 3.16 µM
[30] = second compound 10 µM, first compound 10 µM
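Also: spheroids exposed to agents for seven days before luminescence viability read.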
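For viability, T/C in this document: spheroids also contain HUVEC endothelial cells and human MSC stroma.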

COc1cc(C2c3cc4c(cc3C(OC3OC5COC(C)OC5C(O)C3O)C3COC(=O)C23)OCO4)cc(OC)c1O (stereo not given) + Cc1cncc(-c2nc(NCCc3c[nH]c4ccccc34)c3ncn(C(C)C)c3n2)c1
IC50 (second compound 0.1 µM): 476 nM
IC50 (second compound 0.316 µM): 384 nM
IC50 (second compound 1 µM): 426 nM
IC50 (second compound 3.16 µM): < 31.6 nM
IC50 (second compound 10 µM): < 31.6 nM
viability, T/C [1]: 97.8%
viability, T/C [2]: 99%
viability, T/C [3]: 62.4%
viability, T/C [4]: 24.9%
viability, T/C [5]: 9.98%
viability, T/C [6]: 4.8%
viability, T/C [7]: 103%
viability, T/C [8]: 86.5%
viability, T/C [9]: 58.3%
viability, T/C [10]: 19.1%
viability, T/C [11]: 8.45%
viability, T/C [12]: 5.08%
viability, T/C [13]: 93.3%
viability, T/C [14]: 90.9%
viability, T/C [15]: 59.6%
viability, T/C [16]: 20.9%
viability, T/C [17]: 9.01%
viability, T/C [18]: 6.23%
viability, T/C [19]: 24%
viability, T/C [20]: 19.2%
viability, T/C [21]: 14.8%
viability, T/C [22]: 10.2%
viability, T/C [23]: 7.3%
viability, T/C [24]: 4.57%
viability, T/C [25]: 1.7%
viability, T/C [26]: 1.71%
viability, T/C [27]: 1.45%
viability, T/C [28]: 1.18%
viability, T/C [29]: 1.04%
viability, T/C [30]: 1.29%

Nc1ccn(C2OC(CO)C(O)C2(F)F)c(=O)n1 (stereo not given) + Cc1cncc(-c2nc(NCCc3c[nH]c4ccccc34)c3ncn(C(C)C)c3n2)c1
IC50 (second compound 0.1 µM): < 31.6 nM
IC50 (second compound 0.316 µM): < 31.6 nM
IC50 (second compound 1 µM): < 31.6 nM
IC50 (second compound 3.16 µM): < 31.6 nM
IC50 (second compound 10 µM): < 31.6 nM
viability, T/C [1]: 5.21%
viability, T/C [2]: 5.33%
viability, T/C [3]: 4.29%
viability, T/C [4]: 4.06%
viability, T/C [5]: 3.79%
viability, T/C [6]: 3.29%
viability, T/C [7]: 5.26%
viability, T/C [8]: 5.35%
viability, T/C [9]: 4.46%
viability, T/C [10]: 4.46%
viability, T/C [11]: 3.84%
viability, T/C [12]: 3.1%
viability, T/C [13]: 5.67%
viability, T/C [14]: 5.73%
viability, T/C [15]: 5.73%
viability, T/C [16]: 4.6%
viability, T/C [17]: 6.45%
viability, T/C [18]: 3.8%
viability, T/C [19]: 8.15%
viability, T/C [20]: 6.5%
viability, T/C [21]: 5.64%
viability, T/C [22]: 4.25%
viability, T/C [23]: 4.89%
viability, T/C [24]: 3.39%
viability, T/C [25]: 4.66%
viability, T/C [26]: 3.51%
viability, T/C [27]: 3.29%
viability, T/C [28]: 4.08%
viability, T/C [29]: 2.99%
viability, T/C [30]: 2.51%
